# Laboratory results taken from PubChem BioAssay AID1963445 (Molecular Pharmacology Branch, DTP, NCI, 2024).
# System: MCF7 complex spheroid growth, % test/control
# Assay: Anticancer human tumor MCF7 cell line growth inhibition [Asc];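 further: spheroids exposed to compounds for 7 days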;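 on viability, T/C: 100% = DMSO vehicle control wells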
# Conditions: for IC50: curve of first compound; for viability, T/C: stronger effect = lower value
# In short: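 Concentration series start at each agent's clinical Cmax, or at 10 microM when none is established, and drop in half-log steps; agents are applied alone or together to complex spheroids built with HUVEC and hMSC.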
# [1] = second compound 0.00949 µM, first compound 0.00316 µM
# [2] = second compound 0.00949 µM, first compound 0.01 µM
# [3] = second compound 0.00949 µM, first compound 0.0316 µM
# [4] = second compound 0.00949 µM, first compound 0.1 µM
# [5] = second compound 0.03 µM, first compound 0.00316 µM
# [6] = second compound 0.03 µM, first compound 0.01 µM
# [7] = second compound 0.03 µM, first compound 0.0316 µM
# [8] = second compound 0.03 µM, first compound 0.1 µM
# [9] = second compound 0.0949 µM, first compound 0.00316 µM
# [10] = second compound 0.0949 µM, first compound 0.01 µM
# [11] = second compound 0.0949 µM, first compound 0.0316 µM
# [12] = second compound 0.0949 µM, first compound 0.1 µM
# [13] = second compound 0.3 µM, first compound 0.00316 µM
# [14] = second compound 0.3 µM, first compound 0.01 µM
# [15] = second compound 0.3 µM, first compound 0.0316 µM
# [16] = second compound 0.3 µM, first compound 0.1 µM
# [17] = second compound 0.949 µM, first compound 0.00316 µM
# [18] = second compound 0.949 µM, first compound 0.01 µM
# [19] = second compound 0.949 µM, first compound 0.0316 µM
# [20] = second compound 0.949 µM, first compound 0.1 µM
# [21] = second compound 3 µM, first compound 0.00316 µM
# [22] = second compound 3 µM, first compound 0.01 µM
# [23] = second compound 3 µM, first compound 0.0316 µM
# [24] = second compound 3 µM, first compound 0.1 µM
smiles,measurement,setting,value
COc1c(OCCCN2CCOCC2)ccc2c3n(c(=NC(=O)c4cnc(N)nc4)nc12)CCN3 + CCN1C(C(=O)NC23CCC(C(=O)O)(CC2)CC3)C(c2cccc(Cl)c2F)C2(C(=O)Nc3cc(Cl)ccc32)C12CCCCC2,IC50,second compound 0.00949 µM,48.4 nM
same,IC50,second compound 0.03 µM,42.4 nM
same,IC50,second compound 0.0949 µM,< 3.16 nM
same,IC50,second compound 0.3 µM,< 3.16 nM
same,IC50,second compound 0.949 µM,< 3.16 nM
same,IC50,second compound 3 µM,< 3.16 nM
same,"viability, T/C",[1],98.8%
same,"viability, T/C",[2],70%
same,"viability, T/C",[3],54.6%
same,"viability, T/C",[4],49%
same,"viability, T/C","second compound 0.00949 µM, first compound 0.316 µM",14.4%
same,"viability, T/C","second compound 0.00949 µM, first compound 1 µM",9.39%
same,"viability, T/C",[5],78.7%
same,"viability, T/C",[6],77.8%
same,"viability, T/C",[7],56.1%
same,"viability, T/C",[8],29%
same,"viability, T/C","second compound 0.03 µM, first compound 0.316 µM",7.5%
same,"viability, T/C","second compound 0.03 µM, first compound 1 µM",9%
same,"viability, T/C",[9],47.8%
same,"viability, T/C",[10],50.3%
same,"viability, T/C",[11],36.6%
same,"viability, T/C",[12],18.4%
same,"viability, T/C","second compound 0.0949 µM, first compound 0.316 µM",8.59%
same,"viability, T/C","second compound 0.0949 µM, first compound 1 µM",8.82%
same,"viability, T/C",[13],26.4%
same,"viability, T/C",[14],21.5%
same,"viability, T/C",[15],12.6%
same,"viability, T/C",[16],4.54%
same,"viability, T/C","second compound 0.3 µM, first compound 0.316 µM",7.49%
same,"viability, T/C","second compound 0.3 µM, first compound 1 µM",8.96%
same,"viability, T/C",[17],17.9%
same,"viability, T/C",[18],10.1%
same,"viability, T/C",[19],4.6%
same,"viability, T/C",[20],6.32%
same,"viability, T/C","second compound 0.949 µM, first compound 0.316 µM",8.83%
same,"viability, T/C","second compound 0.949 µM, first compound 1 µM",8.95%
same,"viability, T/C",[21],9.35%
same,"viability, T/C",[22],5.25%
same,"viability, T/C",[23],6.94%
same,"viability, T/C",[24],6.59%
same,"viability, T/C","second compound 3 µM, first compound 0.316 µM",9.64%
same,"viability, T/C","second compound 3 µM, first compound 1 µM",10%
NC(=O)C(=Cn1cnc(-c2cc(C(F)(F)F)cc(C(F)(F)F)c2)n1)c1cncnc1 + CCN1C(C(=O)NC23CCC(C(=O)O)(CC2)CC3)C(c2cccc(Cl)c2F)C2(C(=O)Nc3cc(Cl)ccc32)C12CCCCC2,IC50,second compound 0.00949 µM,50 nM
same,IC50,second compound 0.03 µM,15.3 nM
same,IC50,second compound 0.0949 µM,< 0.949 nM
same,IC50,second compound 0.3 µM,< 0.949 nM
same,IC50,second compound 0.949 µM,< 0.949 nM
same,IC50,second compound 3 µM,< 0.949 nM
same,"viability, T/C","second compound 0.00949 µM, first compound 0.000949 µM",109%
same,"viability, T/C","second compound 0.00949 µM, first compound 0.003 µM",107%
same,"viability, T/C","second compound 0.00949 µM, first compound 0.00949 µM",86.7%
same,"viability, T/C","second compound 0.00949 µM, first compound 0.03 µM",73.6%
same,"viability, T/C","second compound 0.00949 µM, first compound 0.0949 µM",23.7%
same,"viability, T/C","second compound 0.00949 µM, first compound 0.3 µM",14.1%
same,"viability, T/C","second compound 0.03 µM, first compound 0.000949 µM",89.2%
same,"viability, T/C","second compound 0.03 µM, first compound 0.003 µM",75.2%
same,"viability, T/C","second compound 0.03 µM, first compound 0.00949 µM",55.6%
same,"viability, T/C","second compound 0.03 µM, first compound 0.03 µM",44.4%
same,"viability, T/C","second compound 0.03 µM, first compound 0.0949 µM",17.8%
same,"viability, T/C","second compound 0.03 µM, first compound 0.3 µM",14.3%
same,"viability, T/C","second compound 0.0949 µM, first compound 0.000949 µM",45.5%
same,"viability, T/C","second compound 0.0949 µM, first compound 0.003 µM",48%
same,"viability, T/C","second compound 0.0949 µM, first compound 0.00949 µM",30.4%
same,"viability, T/C","second compound 0.0949 µM, first compound 0.03 µM",12.4%
same,"viability, T/C","second compound 0.0949 µM, first compound 0.0949 µM",9.36%
same,"viability, T/C","second compound 0.0949 µM, first compound 0.3 µM",12.6%
same,"viability, T/C","second compound 0.3 µM, first compound 0.000949 µM",25.9%
same,"viability, T/C","second compound 0.3 µM, first compound 0.003 µM",22.5%
same,"viability, T/C","second compound 0.3 µM, first compound 0.00949 µM",16%
same,"viability, T/C","second compound 0.3 µM, first compound 0.03 µM",13.9%
same,"viability, T/C","second compound 0.3 µM, first compound 0.0949 µM",11.8%
same,"viability, T/C","second compound 0.3 µM, first compound 0.3 µM",13.4%
same,"viability, T/C","second compound 0.949 µM, first compound 0.000949 µM",14.8%
same,"viability, T/C","second compound 0.949 µM, first compound 0.003 µM",11%
same,"viability, T/C","second compound 0.949 µM, first compound 0.00949 µM",9.57%
same,"viability, T/C","second compound 0.949 µM, first compound 0.03 µM",10.6%
same,"viability, T/C","second compound 0.949 µM, first compound 0.0949 µM",14%
same,"viability, T/C","second compound 0.949 µM, first compound 0.3 µM",14.7%
same,"viability, T/C","second compound 3 µM, first compound 0.000949 µM",13.1%
same,"viability, T/C","second compound 3 µM, first compound 0.003 µM",10.4%
same,"viability, T/C","second compound 3 µM, first compound 0.00949 µM",10.3%
same,"viability, T/C","second compound 3 µM, first compound 0.03 µM",13.8%
same,"viability, T/C","second compound 3 µM, first compound 0.0949 µM",16.1%
same,"viability, T/C","second compound 3 µM, first compound 0.3 µM",20.5%
NC1CCC(NC2CC2c2ccccc2)CC1 (stereo unspecified) + CCN1C(C(=O)NC23CCC(C(=O)O)(CC2)CC3)C(c2cccc(Cl)c2F)C2(C(=O)Nc3cc(Cl)ccc32)C12CCCCC2,IC50,second compound 0.00949 µM,> 100 nM
same,IC50,second compound 0.03 µM,> 100 nM
same,IC50,second compound 0.0949 µM,> 100 nM
same,IC50,second compound 0.3 µM,< 0.316 nM
same,IC50,second compound 0.949 µM,< 0.316 nM
same,IC50,second compound 3 µM,< 0.316 nM
same,"viability, T/C","second compound 0.00949 µM, first compound 0.000316 µM",131%
same,"viability, T/C","second compound 0.00949 µM, first compound 0.001 µM",116%
same,"viability, T/C",[1],131%
same,"viability, T/C",[2],154%
same,"viability, T/C",[3],126%
same,"viability, T/C",[4],127%
same,"viability, T/C","second compound 0.03 µM, first compound 0.000316 µM",108%
same,"viability, T/C","second compound 0.03 µM, first compound 0.001 µM",113%
same,"viability, T/C",[5],123%
same,"viability, T/C",[6],101%
same,"viability, T/C",[7],107%
same,"viability, T/C",[8],74.8%
same,"viability, T/C","second compound 0.0949 µM, first compound 0.000316 µM",65.9%
same,"viability, T/C","second compound 0.0949 µM, first compound 0.001 µM",57.9%
same,"viability, T/C",[9],43.3%
same,"viability, T/C",[10],51.7%
same,"viability, T/C",[11],58.1%
same,"viability, T/C",[12],56.8%
same,"viability, T/C","second compound 0.3 µM, first compound 0.000316 µM",39.4%
same,"viability, T/C","second compound 0.3 µM, first compound 0.001 µM",38.8%
same,"viability, T/C",[13],43.8%
same,"viability, T/C",[14],40%
same,"viability, T/C",[15],34.1%
same,"viability, T/C",[16],43%
same,"viability, T/C","second compound 0.949 µM, first compound 0.000316 µM",30.3%
same,"viability, T/C","second compound 0.949 µM, first compound 0.001 µM",26.9%
same,"viability, T/C",[17],29.1%
same,"viability, T/C",[18],25.7%
same,"viability, T/C",[19],29.1%
same,"viability, T/C",[20],23.8%
same,"viability, T/C","second compound 3 µM, first compound 0.000316 µM",18.3%
same,"viability, T/C","second compound 3 µM, first compound 0.001 µM",18.6%
same,"viability, T/C",[21],19.9%
same,"viability, T/C",[22],15.5%
same,"viability, T/C",[23],16.5%
same,"viability, T/C",[24],19.6%
